Results from ChEMBL document CHEMBL1138757, “Synthesis and photosensitizing efficacy of isomerically pure bacteriopurpurinimides” (2004).

Columns and labels:
Mus musculus [1] = species: Mus musculus; experiment: In vitro Efficacy to destroy the RIF tumor cells by MTT assay when incubated for 3 hr at drug concentration of 1.5 uM and exposed to laser light (780nm,16J/cm2); type: functional
Mus musculus [2] = experiment: In vivo photosensitizing efficacy when evaluated in mice assessed on day 90; type: functional

SMILES	Efficacy (Mus musculus [1])	Efficacy (Mus musculus [2])
CCCCCCCO[C@@H](C)C1=C(C)c2cc3[nH]c(c4c5[nH]c(cc6nc(cc1n2)[C@H](C)[C@H]6CC)c(C)c5C(=O)N(CCCCCC)C4=O)[C@@H](CCC(=O)OCCC)[C@@H]3C	100%	2 No. of mice tumor free
CCCCCCCO[C@H](C)C1=C(C)c2cc3[nH]c(c4c5[nH]c(cc6nc(cc1n2)[C@H](C)[C@H]6CC)c(C)c5C(=O)N(CCCCCC)C4=O)[C@@H](CCC(=O)OCCC)[C@@H]3C	100%	6 No. of mice tumor free
